{
  "source": "ChEMBL document CHEMBL3525953",
  "about": "“In vitro cytochrome P450-mediated metabolism of exemestane” (Drug Metab Dispos, 2011)",
  "assay_type_in_all_cases": "ADME",
  "key": {"Cytochrome P450 2B6 [1]": {"molecular_target": "T1, Cytochrome P450 2B6 (Homo sapiens, UniProt P20813)", "T1 sequence (P20813 whole entry)": "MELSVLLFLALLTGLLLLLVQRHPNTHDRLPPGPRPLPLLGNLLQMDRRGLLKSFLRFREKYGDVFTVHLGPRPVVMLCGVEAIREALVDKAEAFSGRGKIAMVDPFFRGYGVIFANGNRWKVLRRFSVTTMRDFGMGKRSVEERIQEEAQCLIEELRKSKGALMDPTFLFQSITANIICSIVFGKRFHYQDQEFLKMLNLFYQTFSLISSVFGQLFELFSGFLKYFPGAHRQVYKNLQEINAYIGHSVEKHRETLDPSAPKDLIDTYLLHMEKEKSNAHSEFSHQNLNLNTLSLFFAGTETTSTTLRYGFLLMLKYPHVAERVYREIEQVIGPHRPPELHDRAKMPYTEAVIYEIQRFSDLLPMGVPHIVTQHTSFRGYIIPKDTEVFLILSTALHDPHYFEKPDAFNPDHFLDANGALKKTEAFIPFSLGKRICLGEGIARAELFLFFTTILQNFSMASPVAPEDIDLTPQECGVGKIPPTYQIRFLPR", "experiment": "Drug metabolism assessed as human recombinant CYP2B6-mediated 17-hydroexemestane formation at 10 uM after 10 mins by Michaelis-Menten saturation curve analysis", "settings": "recombinant enzyme"}, "Cytochrome P450 1A1": {"molecular_target": "T2, Cytochrome P450 1A1 (Homo sapiens, UniProt P04798)", "T2 sequence (P04798 whole entry)": "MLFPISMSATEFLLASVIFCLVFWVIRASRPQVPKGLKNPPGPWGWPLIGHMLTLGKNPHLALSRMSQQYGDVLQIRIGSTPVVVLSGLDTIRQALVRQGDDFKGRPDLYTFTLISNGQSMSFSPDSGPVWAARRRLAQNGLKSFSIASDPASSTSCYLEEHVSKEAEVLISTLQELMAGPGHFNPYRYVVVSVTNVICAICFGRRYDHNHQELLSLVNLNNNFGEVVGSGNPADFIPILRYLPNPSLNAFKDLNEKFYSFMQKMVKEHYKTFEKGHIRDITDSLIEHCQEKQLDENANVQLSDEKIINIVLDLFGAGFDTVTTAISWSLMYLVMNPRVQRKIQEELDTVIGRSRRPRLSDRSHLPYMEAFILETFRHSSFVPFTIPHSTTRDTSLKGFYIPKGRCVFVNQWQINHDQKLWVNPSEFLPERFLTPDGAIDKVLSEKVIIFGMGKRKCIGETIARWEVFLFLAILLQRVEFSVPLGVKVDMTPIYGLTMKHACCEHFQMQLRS", "experiment": "Drug metabolism assessed as human recombinant CYP1A1-mediated 17-hydroexemestane formation rate per pmol of enzyme at 10 uM after 10 mins"}, "Cytochrome P450 4A11": {"molecular_target": "T3, Cytochrome P450 4A11 (Homo sapiens, UniProt Q02928)", "T3 sequence (Q02928 whole entry)": "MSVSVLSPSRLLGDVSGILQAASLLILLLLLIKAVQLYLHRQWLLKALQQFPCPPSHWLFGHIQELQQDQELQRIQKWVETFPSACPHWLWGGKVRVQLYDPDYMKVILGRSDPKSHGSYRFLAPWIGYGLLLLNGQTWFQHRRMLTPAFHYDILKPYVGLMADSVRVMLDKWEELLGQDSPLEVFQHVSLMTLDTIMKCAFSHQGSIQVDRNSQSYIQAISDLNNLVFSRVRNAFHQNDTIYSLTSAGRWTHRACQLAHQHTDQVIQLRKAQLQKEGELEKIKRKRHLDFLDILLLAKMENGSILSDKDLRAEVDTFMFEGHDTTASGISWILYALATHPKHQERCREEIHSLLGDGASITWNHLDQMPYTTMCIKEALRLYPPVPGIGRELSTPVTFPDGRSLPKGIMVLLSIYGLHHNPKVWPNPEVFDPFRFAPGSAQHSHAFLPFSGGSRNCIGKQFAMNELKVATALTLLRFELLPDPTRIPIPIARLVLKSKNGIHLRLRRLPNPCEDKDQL", "experiment": "Drug metabolism assessed as human recombinant CYP4A11-mediated 17-hydroexemestane formation rate per pmol of enzyme at 10 uM after 10 mins"}, "Cytochrome P450 3A4": {"molecular_target": "Cytochrome P450 3A4 (Homo sapiens, UniProt P08684)", "sequence (P08684 whole entry)": "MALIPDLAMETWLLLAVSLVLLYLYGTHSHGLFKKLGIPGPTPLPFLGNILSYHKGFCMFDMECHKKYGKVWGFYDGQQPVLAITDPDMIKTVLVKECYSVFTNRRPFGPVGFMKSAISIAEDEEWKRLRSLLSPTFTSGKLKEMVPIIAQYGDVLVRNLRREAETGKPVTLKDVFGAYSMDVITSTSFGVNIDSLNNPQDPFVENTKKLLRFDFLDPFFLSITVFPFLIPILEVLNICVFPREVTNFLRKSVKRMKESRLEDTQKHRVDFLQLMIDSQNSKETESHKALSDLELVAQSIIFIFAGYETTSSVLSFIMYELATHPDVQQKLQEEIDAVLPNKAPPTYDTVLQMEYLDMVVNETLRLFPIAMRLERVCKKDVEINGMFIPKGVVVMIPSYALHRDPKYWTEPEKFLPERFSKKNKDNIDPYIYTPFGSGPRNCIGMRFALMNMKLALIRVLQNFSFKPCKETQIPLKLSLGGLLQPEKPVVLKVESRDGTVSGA", "experiment": "Drug metabolism assessed as human recombinant CYP3A4-mediated 17-hydroexemestane formation rate per pmol of enzyme at 10 uM after 10 mins"}, "Cytochrome P450 3A5": {"molecular_target": "Cytochrome P450 3A5 (Homo sapiens, UniProt P20815)", "sequence (P20815 whole entry)": "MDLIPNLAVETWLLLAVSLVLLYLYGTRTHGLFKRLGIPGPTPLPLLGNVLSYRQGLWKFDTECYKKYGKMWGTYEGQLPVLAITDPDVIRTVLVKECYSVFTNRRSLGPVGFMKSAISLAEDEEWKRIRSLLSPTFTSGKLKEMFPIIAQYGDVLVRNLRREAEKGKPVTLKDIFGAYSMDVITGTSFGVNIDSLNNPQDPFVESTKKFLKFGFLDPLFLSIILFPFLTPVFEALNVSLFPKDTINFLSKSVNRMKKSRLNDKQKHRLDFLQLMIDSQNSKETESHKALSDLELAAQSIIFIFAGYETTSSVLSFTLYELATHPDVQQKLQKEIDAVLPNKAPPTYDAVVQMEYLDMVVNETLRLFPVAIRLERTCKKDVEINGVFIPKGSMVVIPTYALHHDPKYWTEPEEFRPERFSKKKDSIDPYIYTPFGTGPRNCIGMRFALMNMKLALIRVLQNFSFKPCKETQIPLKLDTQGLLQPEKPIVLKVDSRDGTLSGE", "experiment": "Drug metabolism assessed as human recombinant CYP3A5-mediated 17-hydroexemestane formation rate per pmol of enzyme at 10 uM after 10 mins"}, "Cytochrome P450 2B6 [2]": {"molecular_target": "T1, Cytochrome P450 2B6", "experiment": "Drug metabolism assessed as human recombinant CYP2B6-mediated 17-hydroexemestane formation rate per pmol of enzyme at 10 uM after 10 mins"}, "Cytochrome P450 2C9": {"molecular_target": "Cytochrome P450 2C9 (Homo sapiens, UniProt P11712)", "sequence (P11712 whole entry)": "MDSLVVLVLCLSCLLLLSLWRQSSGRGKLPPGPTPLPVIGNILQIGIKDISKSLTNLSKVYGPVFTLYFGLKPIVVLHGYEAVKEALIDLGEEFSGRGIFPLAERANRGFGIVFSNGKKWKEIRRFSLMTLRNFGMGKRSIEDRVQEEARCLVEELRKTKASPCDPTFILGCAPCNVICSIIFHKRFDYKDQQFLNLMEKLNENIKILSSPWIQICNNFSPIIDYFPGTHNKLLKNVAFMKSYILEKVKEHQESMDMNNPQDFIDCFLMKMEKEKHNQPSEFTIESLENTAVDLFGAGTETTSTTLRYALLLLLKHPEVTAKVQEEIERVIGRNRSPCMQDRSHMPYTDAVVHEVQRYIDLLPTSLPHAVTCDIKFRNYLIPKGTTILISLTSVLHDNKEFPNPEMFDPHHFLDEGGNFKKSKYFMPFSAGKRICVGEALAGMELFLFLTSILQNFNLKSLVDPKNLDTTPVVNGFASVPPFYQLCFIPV", "experiment": "Drug metabolism assessed as human recombinant CYP2C9-mediated 17-hydroexemestane formation rate per pmol of enzyme at 10 uM after 10 mins"}, "Cytochrome P450 2C19": {"molecular_target": "Cytochrome P450 2C19 (Homo sapiens, UniProt P33261)", "sequence (P33261 whole entry)": "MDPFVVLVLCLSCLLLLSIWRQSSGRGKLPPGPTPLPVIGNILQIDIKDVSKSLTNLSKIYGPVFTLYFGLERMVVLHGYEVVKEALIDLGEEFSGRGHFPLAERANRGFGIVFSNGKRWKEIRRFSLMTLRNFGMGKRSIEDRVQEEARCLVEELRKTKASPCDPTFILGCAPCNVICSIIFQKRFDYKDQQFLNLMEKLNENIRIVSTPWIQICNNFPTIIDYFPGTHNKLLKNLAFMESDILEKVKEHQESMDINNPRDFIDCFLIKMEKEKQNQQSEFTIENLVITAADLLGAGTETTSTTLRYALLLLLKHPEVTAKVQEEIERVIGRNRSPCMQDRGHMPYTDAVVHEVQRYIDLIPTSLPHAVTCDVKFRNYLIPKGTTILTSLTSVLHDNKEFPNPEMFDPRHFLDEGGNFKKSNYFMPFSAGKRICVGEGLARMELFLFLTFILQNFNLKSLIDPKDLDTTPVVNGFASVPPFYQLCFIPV", "experiment": "Drug metabolism assessed as human recombinant CYP2C19-mediated 17-hydroexemestane formation rate per pmol of enzyme at 10 uM after 10 mins"}, "Liver microsome [3]": {"tested_on": "Liver microsome", "experiment": "Drug metabolism in human liver microsomes assessed as retention time treated with 300 uM of exemestane after 10 mins by HPLC with UV analysis"}, "Liver microsome [4]": {"tested_on": "Liver microsome", "experiment": "Drug metabolism in human liver microsomes assessed as 17-hydroexemestane formation at 10 uM after 10 mins by LC-MS/MS analysis"}, "Cytochrome P450 1A2": {"molecular_target": "T4, Cytochrome P450 1A2 (Homo sapiens, UniProt P05177)", "T4 sequence (P05177 whole entry)": "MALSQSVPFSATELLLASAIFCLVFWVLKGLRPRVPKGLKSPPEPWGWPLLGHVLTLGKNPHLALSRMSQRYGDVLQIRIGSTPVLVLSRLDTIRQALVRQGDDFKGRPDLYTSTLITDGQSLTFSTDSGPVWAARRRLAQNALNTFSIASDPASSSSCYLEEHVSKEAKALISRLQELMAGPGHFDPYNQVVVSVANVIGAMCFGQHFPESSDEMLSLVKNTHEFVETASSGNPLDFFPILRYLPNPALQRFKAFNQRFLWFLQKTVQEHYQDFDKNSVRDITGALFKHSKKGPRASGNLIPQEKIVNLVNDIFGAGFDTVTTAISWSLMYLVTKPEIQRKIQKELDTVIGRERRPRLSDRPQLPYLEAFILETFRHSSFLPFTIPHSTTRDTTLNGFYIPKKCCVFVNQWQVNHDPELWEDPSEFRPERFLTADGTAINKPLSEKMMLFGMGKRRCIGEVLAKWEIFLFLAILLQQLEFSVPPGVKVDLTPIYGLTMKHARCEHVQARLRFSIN", "experiment": "Drug metabolism assessed as human recombinant CYP1A2-mediated 17-hydroexemestane formation at 10 uM after 10 mins by Michaelis-Menten saturation curve analysis", "settings": "recombinant enzyme"}},
  "data": [
    {"molecule": "C=C1C[C@@H]2[C@H](CC[C@]3(C)C(O)CC[C@@H]23)[C@@]2(C)C=CC(=O)C=C12", "note": "(some centres not stated)", "values": [
      {"measurement": "Vmax(app)", "setting": "Cytochrome P450 2B6 [1]", "value": 3.9, "unit": "pmol/mg/min"},
      {"measurement": "Km", "setting": "Cytochrome P450 2B6 [1]; read-out: Km(app)", "value": 177, "unit": "µM"},
      {"measurement": "Drug metabolism", "setting": "Cytochrome P450 1A1", "value": 1.09, "unit": "pmol/min"},
      {"measurement": "Drug metabolism", "setting": "Cytochrome P450 4A11", "value": 0.48, "unit": "pmol/min"},
      {"measurement": "Drug metabolism", "setting": "Cytochrome P450 3A4", "value": 0.17, "unit": "pmol/min"},
      {"measurement": "Drug metabolism", "setting": "Cytochrome P450 3A5", "value": 0.21, "unit": "pmol/min"},
      {"measurement": "Drug metabolism", "setting": "Cytochrome P450 2B6 [2]", "value": 0.3, "unit": "pmol/min"},
      {"measurement": "Drug metabolism", "setting": "Cytochrome P450 2C9", "value": "metabolite_not_detected"},
      {"measurement": "Drug metabolism", "setting": "Cytochrome P450 2C19", "value": "metabolite_not_detected"},
      {"measurement": "Retention_time", "setting": "Liver microsome [3]", "value": 13.1, "unit": "min"},
      {"measurement": "Vmax(app)", "setting": "Liver microsome [4]", "value": 137.32, "unit": "pmol/mg/min"},
      {"measurement": "Drug metabolism", "setting": "Cytochrome P450 1A2", "value": "metabolite_detected"}
    ]}
  ]
}
